Where two headings read alike, the source gives them in different places.
Key:
P. aeruginosa [1] = experiment: Broth microdilution MIC (Example 10)
Acinetobacter baumannii = experiment: Broth microdilution MIC (Example 12)
Klebsiella pneumoniae = experiment: Broth microdilution MIC (Example 12)
Escherichia coli [2] = experiment: Broth microdilution MIC (Example 12)
P. aeruginosa [3] = conditions: P. aeruginosa isolate 103, CLSI QC range in parenthesis, cited from earlier work
Pseudomonas aeruginosa [4] = experiment: Broth microdilution MIC (Example 12)
Pseudomonas aeruginosa [5] = conditions: P. aeruginosa ATCC 27853, QC organism; cited from earlier work
[6] = test system: Burkholderia cepacia complex; experiment: Broth microdilution MIC (Example 10); conditions: initial MIC testing
[7] = test system: Burkholderia cepacia complex; experiment: Checkerboard FIC assay, BisEDT with CF agents (Example 10); assay type: cell-based, Burkholderia spp.; conditions: B. cenocepacia isolate 0548; agent alone, as observed during FIC testing
Escherichia coli [8] = conditions: E. coli ATCC 25922, QC organism; cited from earlier work
S. aureus ATCC 29213 [9] = conditions: S. aureus ATCC 29213, QC organism; cited from earlier work
S. aureus ATCC 29213 [10] = experiment: Broth microdilution MIC, ATCC QC organism (Example 12); assay type: cell-based, Staphylococcus aureus; conditions: S. aureus ATCC 29213, QC organism
Method: The in vitro activity of BisEDT and two additional bismuth-thiol investigational agents (MB-2B and MB-6) was determined for isolates of Escherichia coli, Klebsiella pneumoniae, Pseudomonas aeruginosa and Acinetobacter baumannii characterized for extended-spectrum β-lactamases (ESBL) and/or carbapenem resistance. In addition, vancomycin-intermediate Staphylococcus aureus (VISA) were evaluated. The majority of the isolates tested in the current study were multidrug-resistant (MDR) as defined by resistance to at least three different antibiotic classes. Susceptibility to the investigational compounds and relevant comparators was determined by broth microdilution conducted in accordance with guidelines from the Clinical and Laboratory Standards Institute (CLSI; 2,3).

[11] = test system: vancomycin-intermediate Staphylococcus aureus (VISA); experiment: Broth microdilution MIC (Example 12)
[12] = Acinetobacter baumannii CDC 273, ESBL/OXA
[13] = Acinetobacter baumannii CDC 274, ESBL/OXA
[14] = Acinetobacter baumannii CDC 275, ESBL/OXA
[15] = Acinetobacter baumannii CDC 277, ESBL/OXA
[16] = Acinetobacter baumannii CDC 284, ESBL/OXA
[17] = Acinetobacter baumannii CDC 307, OXA
[18] = Acinetobacter baumannii CDC 308, ESBL/OXA
[19] = Acinetobacter baumannii CDC 311, OXA
[20] = Acinetobacter baumannii CDC 312, OXA
[21] = Acinetobacter baumannii CDC 313, ESBL/OXA
[22] = Acinetobacter baumannii NCTC 13304, OXA
[23] = K. pneumoniae ATCC BAA-1705, QC organism
[24] = Klebsiella pneumoniae ATCC BAA-1705, ESBL/KPC
[25] = Klebsiella pneumoniae CDC 112, KPC
[26] = Klebsiella pneumoniae CDC 113, ESBL/KPC
[27] = Klebsiella pneumoniae CDC 115, ESBL/KPC
[28] = Klebsiella pneumoniae CDC 120, ESBL/KPC
[29] = Klebsiella pneumoniae CDC 126, ESBL/KPC
[30] = Klebsiella pneumoniae CDC 129, ESBL/KPC
[31] = Klebsiella pneumoniae CDC 135, ESBL/VIM
[32] = Klebsiella pneumoniae CDC 138, ESBL/NDM
[33] = Klebsiella pneumoniae CDC 158, ESBL/NDM/OXA
[34] = Klebsiella pneumoniae MMX 9029, ESBL
[35] = E. coli ATCC 25922, QC organism
[36] = E. coli ATCC 35218, QC organism
[37] = Escherichia coli ATCC 35218, ESBL
[38] = Escherichia coli ATCC BAA-2471, NDM
[39] = Escherichia coli CDC 114, ESBL/KPC
[40] = Escherichia coli CDC 118, ESBL/NDM
[41] = Escherichia coli CDC 503, ESBL/NDM
[42] = Escherichia coli MMX 5755, ESBL
[43] = Escherichia coli MMX 5756, ESBL
[44] = Escherichia coli MMX 5758, ESBL
[45] = P. aeruginosa ATCC 27853, QC organism
[46] = Pseudomonas aeruginosa CDC 230, VIM/OXA
[47] = Pseudomonas aeruginosa CDC 231, KPC/OXA
[48] = Pseudomonas aeruginosa CDC 241, IMP/OXA
[49] = Pseudomonas aeruginosa CDC 246, NDM/OXA
[50] = Pseudomonas aeruginosa CDC 250, NDM/OXA
[51] = Pseudomonas aeruginosa CDC 356, KPC
[52] = Pseudomonas aeruginosa CDC 439, IMP
[53] = Pseudomonas aeruginosa CDC 444, VIM
[54] = Pseudomonas aeruginosa CDC 457, VIM
[55] = Pseudomonas aeruginosa CDC 516, KPC/AmpC
[56] = Pseudomonas aeruginosa CDC 518, KPC/AmpC

CC(C)(O/N=C(\C(=O)N[C@@H]1C(=O)N2C(C(=O)[O-])=C(C[n+]3ccccc3)CS[C@H]12)c1csc(N)n1)C(=O)O [CAZ]
64 µg/mL: MIC (Acinetobacter baumannii; [12]) | MIC (Acinetobacter baumannii; [16]) | MIC (Acinetobacter baumannii; [17]) | MIC (Acinetobacter baumannii; [18]) | MIC (Escherichia coli [2]; Escherichia coli CDC 451, KPC) | MIC (Pseudomonas aeruginosa [4]; [46]) | MIC (Pseudomonas aeruginosa [4]; [51]) | MIC (Pseudomonas aeruginosa [4]; [55])
16 µg/mL: MIC (Escherichia coli [2]; [44])
(1-4) μg/mL: MIC, QC range (Pseudomonas aeruginosa [5])
0.12 µg/mL: MIC (Escherichia coli [2]; [36]) | MIC (Escherichia coli [2]; [37])
2 µg/mL: MIC (Pseudomonas aeruginosa [4]; [45])
32 µg/mL: MIC (Escherichia coli [2]; Escherichia coli MMX 5745, KPC) | MIC (Pseudomonas aeruginosa [4]; [53]) | MIC (Pseudomonas aeruginosa [4]; [56])
(0.06-0.5) μg/mL: MIC, QC range (Escherichia coli [8])
>64 µg/mL: MIC (Acinetobacter baumannii; [13]) | MIC (Acinetobacter baumannii; [14]) | MIC (Acinetobacter baumannii; [15]) | MIC (Acinetobacter baumannii; [19]) | MIC (Acinetobacter baumannii; [20]) | MIC (Acinetobacter baumannii; [21]) | MIC (Acinetobacter baumannii; [22]) | MIC (Klebsiella pneumoniae; [23]) | MIC (Klebsiella pneumoniae; [24]) | MIC (Klebsiella pneumoniae; [25]) | MIC (Klebsiella pneumoniae; [26]) | MIC (Klebsiella pneumoniae; [27]) | MIC (Klebsiella pneumoniae; [28]) | MIC (Klebsiella pneumoniae; [30]) | MIC (Klebsiella pneumoniae; [31]) | MIC (Klebsiella pneumoniae; [32]) | MIC (Klebsiella pneumoniae; [33]) | MIC (Escherichia coli [2]; [38]) | MIC (Escherichia coli [2]; [39]) | MIC (Escherichia coli [2]; [40]) | MIC (Escherichia coli [2]; Escherichia coli CDC 435, NDM) | MIC (Escherichia coli [2]; [41]) | MIC (Escherichia coli [2]; [42]) | MIC (Escherichia coli [2]; [43]) | MIC (Pseudomonas aeruginosa [4]; [47]) | MIC (Pseudomonas aeruginosa [4]; [48]) | MIC (Pseudomonas aeruginosa [4]; [49]) | MIC (Pseudomonas aeruginosa [4]; [50]) | MIC (Pseudomonas aeruginosa [4]; [52]) | MIC (Pseudomonas aeruginosa [4]; [54])
4 µg/mL: MIC (Klebsiella pneumoniae; [29]) | MIC (Klebsiella pneumoniae; [34])
0.25 µg/mL: MIC (Escherichia coli [2]; [35])

CCC[C@@H]1C[C@@H](C(=O)N[C@@H]([C@H]2O[C@H](SC)[C@H](O)[C@@H](O)[C@H]2O)[C@H](C)Cl)N(C)C1 [CLI]
>8 µg/mL: MIC ([11]; Staphylococcus aureus NRS 1 (hVISA)) | MIC ([11]; Staphylococcus aureus NRS 2) | MIC ([11]; Staphylococcus aureus NRS 3) | MIC ([11]; Staphylococcus aureus NRS 4) | MIC ([11]; Staphylococcus aureus NRS 18) | MIC ([11]; Staphylococcus aureus NRS 22) | MIC ([11]; Staphylococcus aureus NRS 24 (hVISA)) | MIC ([11]; Staphylococcus aureus NRS 27)
(0.06-0.25) μg/mL: MIC, QC range (S. aureus ATCC 29213 [9])
0.06 µg/mL: MIC ([11]; Staphylococcus aureus NRS 13)
0.25 µg/mL: MIC (S. aureus ATCC 29213 [10])
